Results on 2 compounds are retold here after publication PMC9031226, “Preclinical Therapeutic Assessment of a New Chemotherapeutics [Dichloro(4,4’-Bis(2,2,3,3-Tetrafluoropropoxy) Methyl)-2,2’-Bipryridine) Platinum] in an Orthotopic Patient-Derived Xenograft Model of Triple-Negative Breast Cancers” (Pharmaceutics, 2022).

Some results are limits rather than exact numbers.

Test [1] deals with MDA-MB-231. Description: MTT cell viability assay on MDA-MB-231. The test is classed as cell-based, human. Conditions: for reduction in cell viability: MDA-MB-231, 20 μM; for IC50: MDA-MB-231, MTT assay, 48 h. The method, then: (§1) Human cancer cell lines, including MDA-MB-231, MCF-7, COLO205 and SK-OV-3, used in this study were purchased from American Type Culture Collection (ATCC, Manassas, VA, USA). All cell cultures were maintained in a 5% CO2-containing incubator at 37 °C. Triple-negative breast cancer cell line MDA-MB-231 and estrogen receptor-positive breast cancer cells MCF-7 were cultured in Dulbecco’s Modified Eagle Medium/Nutrient Mixture F-12 medium (DMEM/F12, Thermo Fisher Scientific Inc., Waltham, MA, USA) supplemented with 1% HyClone Penicillin-Streptomycin 100X solution (Cytiva, Marlborough, MA, USA) and 10% (v/v) fetal bovine serum (Thermo Fisher Scientific Inc., Waltham, MA, USA). COLO205 colon cancer cells and SK-OV-3 ovarian cancer cells were cultured in Roswell Park Memorial Institute (RPMI) 1640 medium (Thermo Fisher Scientific Inc., Waltham, MA, USA) containing the same supplements as described above.
(§2) Cell viability was evaluated using MTT assay. […] A viable cell count was determined by adding MTT reagent (3-(4,5-Dimethyl-2-thiazolyl)-2,5-diphenyl-2H-tetrazolium bromide (MTT; SERVA, Heidelberg, Germany) at a concentration of 5 mg/mL in PBS followed by measurement of the absorbance at 570 nm for each well detected by μQuant™ universal microplate spectrophotometer (BioTek, Winowski, VT, USA). The assessment procedures were followed under the manufacturer’s instructions. The final results were represented as mean values in the same experimental group detected by a microplate reader.
(Tetrazolium assays rely on reduction of a dye to a coloured formazan, in cell work by metabolically active cells.)

For test [2], the system named is MCF-7. Description: MTT cell viability assay on MCF-7. The test is classed as cell-based, human. The following applies: for reduction in cell viability (antiproliferative effect): MCF-7, 80 μM. The method, then:
as §1, §2

Test [3] relates to COLO205. Description: MTT cell viability assay on COLO205. It counts as cell-based, human. Conditions: for reduction (proliferative inhibition): COLO205, 20 μM; for IC50: COLO205, MTT assay, 48 h. The method, then: as §1, §2
Test [4] relates to MDA-MB-231 cells. Description: Cell cycle analysis (PI staining, flow cytometry). The test is classed as cell-based, human. The following applies: 24 h; for DNA content in sub G1: without exposure 8.71%; for DNA content in S phase: without exposure 14.75%. The procedure:
The pellet was collected and fixed in 99% ice-cold ethanol and then stored in a freezer at −20 °C for further processing of staining. To label DNA, those fixed cells were rapidly washed to remove the residual fixing agent, followed by staining with DNA intercalating agent propidium iodide solution (PI) for 30 min in the dark. The PI working solution contains 0.5% Triton X-100, 15 μg propidium iodide (PI; BioVision Inc., Milpitas, CA, USA) and 10 μg RNase A (Thermo Fisher Scientific Inc., Waltham, MA, USA) in 1 mL PBS. The measurement and acquisition of DNA content were conducted using FACSVerse^TM Flow Cytometer (BD, Franklin Lakes, NJ, USA). Cell cycle distribution in four phases (subG1, G1, S, G2/M) was gated and analyzed in Kaluza Analysis Software (Beckman Coulter Inc., Indianapolis, IN, USA).
For orientation: In flow cytometry, cells or beads pass a laser one at a time.

Test [5] relates to calf thymus DNA (ct-DNA). Description: UV-Vis spectrum of DNA-drug complex. The test is classed as binding. Conditions: 25 ng/μL ct-DNA, 40-640 μM, 6 h, 37 °C. The method, then:
The binding of the platinum-based agent with calf thymus DNA (ct-DNA) was assessed using UV-visible spectroscopy. […] Absorption between the wavelengths of 220 nm and 500 nm was detected by measuring absorbance every 2 nm via Thermo Varioskan Flash microplate reader (Thermo Fisher Scientific Inc., Waltham, MA, USA). The maximal absorbance of DNA at 260 nm was marked to highlight the spectrum in pure DNA without chemical intercalation.

The test system of test [6] is STAT3-DN plasmid. Description: Gel-based electrophoretic mobility shift assay. The test is classed as binding. The following applies: 24 h, 37 °C. The procedure: Plasmid DNA interacting with platinum-containing compounds was studied using agarose gel electrophoresis to separate DNA fragments dependent on sizes and structures. In total, […] of STAT3-DN plasmid (BIOTOOLS Co., New Taipei City, Taiwan) around 4.8 kb provided by Dr. Chien-Huang Lin was incubated with an equal volume of increasing concentrations of compounds (5~40 µM) at 37 °C for 24 h.
In general terms: A gel shift assay detects complexes by their altered migration in electrophoresis.

In test [7] the test system is patient-derived TNBC tumors. Description: Orthotopic patient-derived xenograft (PDX) model, tumor growth. It counts as in vivo. Conditions: NSG mice. An excerpt:
The procedures for the establishment of breast cancer-bearing xenograft models were modified from previous publications and approved by the Taipei Medical University (TMU) Institutional Animal Care and Use Committee (IACUC No. LAC- 2021-0546) and the Joint Institutional Review Board of Taipei Medical University (N201812005). Overall, 4- to 6-week-old NOD.Cg-PrkdcscidIl2rgtm1Wjl/SzJ (NSG) female mice purchased from BioLASCO Taiwan Co., Ltd. (Taipei, Taiwan) were housed in specific pathogen-free rooms with ad libitum feeding and 12 h light–dark cycle. Patient-derived TNBC tumors were microscopically considered for a hypervascular background and frequent mitosis features, and triple-negative results for estrogen receptor, progesterone receptor and human epidermal growth factor receptor 2 (HER2). After a week of acclimatization, patient-derived TNBC tumors dissected into 3 × 3 × 3 mm^3 were implanted using puncture needle in fat pads between the third and fourth mammary glands for each mouse.
Tumor growth curves were generated by measuring tumor diameters and then calculating based on the same equation described above. Finally, the mice were sacrificed on day 23 after the first dose of treatments. Plasma, tumors and major organs (heart, liver, kidney, spleen and lung) were collected for toxicity assessment and metastasis evaluation.

Test [8] concerns P53, Ki-67, cleaved caspase 3, PD-L1. Description: Immunohistochemistry of CDX tumors. It counts as in vivo, mice. Conditions: 5 mg/kg. An excerpt: Formalin-fixed and paraffin-embedded 4 μm sections of tumor and organs from cell-bearing xenograft models were stained in hematoxylin and eosin to provide an overall morphology of tissues. Tumor sections were dewaxed with UltraClear™ (J.T.Baker, Phillipsburg, NJ, USA), rehydrated in a descending series of alcohol and water and had antigens unmasked in pH 6 or pH 9 Epitope Retrieval Solution (Leica Biosystems Inc., Wetzlar, Germany) in a microwave pressure cooker. […] VisUCyte HRP Polymer Antibody against rabbit IgG (VC003-025; R&D Systems, Minneapolis, MN, USA) and mouse IgG (VC001-025; R&D Systems, Minneapolis, MN, USA) were targeted to primary antibodies. Liquid DAB+ system from Agilent Technologies (Santa Clara, CA, USA) was applied as a chromogen for visualizing. Slides were mounted after hematoxylin counterstaining. All images were scanned using Motic EasyScan Pro 6 pathology slide scanner (Motic China Group Co., Ltd., Hong Kong, China).

Turning to `FC(F)C(F)(F)COCc1ccnc(-c2cc(COCC(F)(F)C(F)F)ccn2)c1.[Cl][Pt][Cl]` [TFBPC], the “reduction in cell viability” value in test [1] is 88%. The 50% inhibitory concentration (IC50) was 3.86 µM in test [1]; above 80 µM in test [2] (MCF-7, MTT assay, 48 h); 11.5 µM in test [3]. The “reduction in cell viability (antiproliferative effect)” value in test [2] is given as 28%. Besides, the “IC50 Values” in test [2] (MCF-7, MTT assay, 48 h) is listed as “resistant”. In addition, the “reduction (proliferative inhibition)” value in test [3] is 72%. Also, in test [3] (MTT, 20 to 80 μM, 24 or 48 h, supplementary figure), the “cell viability of COLO205 cells” value was “effective in inhibiting the cell viability”. The “DNA content in sub G1” value in test [4] (MDA-MB-231, 2.5 μM) is reported as 14.8%; in test [4] (MDA-MB-231, 5 μM) it was 23.14%; in test [4] (MDA-MB-231, 10 μM) it was 27.15%. In addition, the “change in UV-Vis absorption spectrum of ct-DNA at 260 nm” value in test [5] is “hyperchromicity profile”. For the same compound, the “breakage of plasmid DNA (nicked or linear forms)” value in test [6] was “induced single or double breakages of plasmid DNA”. The “average tumor volume and weight compared among groups” value in test [7] (5 mg/kg i.v. weekly x4, day 23) is given as “smallest size in volume”. For the same compound, the “expression of P53, Ki-67 and PD-L1 in tumors (IHC)” value in test [8] was “lowest level in expressions of P53, Ki-67 and PD-L1”. Also, the “expression of cleaved caspase 3 in tumors (IHC)” value in test [8] was “highest expression of cleaved caspase 3”.

As for `N.N.[Cl][Pt][Cl]` [CDDP, Cis-diamineplatinum(II) dichloride], the “reduction in cell viability” value in test [1] is 10%. For the same compound, the IC50 is above 80 µM in test [1]; above 80 µM in test [2] (MCF-7, MTT assay, 48 h); 70 µM in test [3]. In test [2], the “reduction in cell viability (antiproliferative effect)” value was determined as 19%. Further, in test [3], the “reduction (proliferative inhibition)” value is given as 23%. For the same compound, the “DNA content in S phase” value in test [4] (MDA-MB-231, 2.5 μM) is on record as 26.8%; in test [4] (MDA-MB-231, 5 μM), 32.27%; in test [4] (MDA-MB-231, 10 μM) it was 39.65%. Besides, in test [5], the “change in UV-Vis absorption spectrum of ct-DNA at 260 nm” value is “hypochromic profile”. In addition, the “breakage of plasmid DNA (nicked or linear forms)” value in test [6] is listed as “induced single or double breakages of plasmid DNA”. The “average tumor volume vs. control” value in test [7] (2.11 or 5 mg/kg i.v. weekly x4) was “no statistical difference”. Also, in test [8], the “expression of P53, Ki-67 and PD-L1 in tumors (IHC)” value is “lower intensity in P53, Ki-67 and PD-L1”. For the same compound, the “expression of cleaved caspase 3 in tumors (IHC)” value in test [8] is on record as “higher intensity of cleaved caspase 3”.

As usually defined, the IC50 is the point on the concentration scale where inhibition reaches its midpoint. Low readings indicate greater potency in that assay, high ones weaker potency in that assay.
